This is an account of results in BindingDB's records for doi:10.1021/jm050825p (National Institute of Allergy and Infectious Diseases, 2006).

For assay [1], the target named is T1, 3-oxoacyl-[acyl-carrier-protein] synthase 3 (Escherichia coli, UniProt C3TDZ2).
T1 sequence (C3TDZ2 whole entry): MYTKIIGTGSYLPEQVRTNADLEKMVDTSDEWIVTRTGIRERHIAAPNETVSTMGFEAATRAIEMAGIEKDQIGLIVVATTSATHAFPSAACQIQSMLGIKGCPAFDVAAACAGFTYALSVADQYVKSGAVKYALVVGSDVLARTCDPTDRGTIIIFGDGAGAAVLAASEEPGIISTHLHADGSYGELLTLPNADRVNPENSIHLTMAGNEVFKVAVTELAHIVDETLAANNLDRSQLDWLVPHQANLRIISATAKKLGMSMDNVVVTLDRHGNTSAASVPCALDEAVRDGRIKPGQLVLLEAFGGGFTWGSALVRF
Kind of assay: Inhibitory activity against FabH from Escherichia coli ANSI.

For assay [2], the target named is T2, 3-oxoacyl-[acyl-carrier-protein] synthase 3 (Mycobacterium tuberculosis (strain ATCC 25618 / H37Rv), UniProt P9WNG3).
T2 sequence (P9WNG3 whole entry): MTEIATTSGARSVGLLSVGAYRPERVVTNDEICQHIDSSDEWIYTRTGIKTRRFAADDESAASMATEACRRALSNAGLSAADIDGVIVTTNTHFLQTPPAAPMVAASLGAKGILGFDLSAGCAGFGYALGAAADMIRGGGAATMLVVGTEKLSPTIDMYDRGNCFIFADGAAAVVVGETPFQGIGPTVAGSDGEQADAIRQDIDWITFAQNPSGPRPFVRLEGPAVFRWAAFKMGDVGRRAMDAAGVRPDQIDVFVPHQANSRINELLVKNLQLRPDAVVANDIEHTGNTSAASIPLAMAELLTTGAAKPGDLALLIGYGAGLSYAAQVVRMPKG
Kind of assay: Inhibitory activity against FabH from Mycobacterium tuberculosis H37Rv.

The target in assay [3] is T3, 3-oxoacyl-[acyl-carrier-protein] synthase 2 (Mycobacterium tuberculosis (strain ATCC 25618 / H37Rv), UniProt P9WQD7).
T3 sequence (P9WQD7 whole entry): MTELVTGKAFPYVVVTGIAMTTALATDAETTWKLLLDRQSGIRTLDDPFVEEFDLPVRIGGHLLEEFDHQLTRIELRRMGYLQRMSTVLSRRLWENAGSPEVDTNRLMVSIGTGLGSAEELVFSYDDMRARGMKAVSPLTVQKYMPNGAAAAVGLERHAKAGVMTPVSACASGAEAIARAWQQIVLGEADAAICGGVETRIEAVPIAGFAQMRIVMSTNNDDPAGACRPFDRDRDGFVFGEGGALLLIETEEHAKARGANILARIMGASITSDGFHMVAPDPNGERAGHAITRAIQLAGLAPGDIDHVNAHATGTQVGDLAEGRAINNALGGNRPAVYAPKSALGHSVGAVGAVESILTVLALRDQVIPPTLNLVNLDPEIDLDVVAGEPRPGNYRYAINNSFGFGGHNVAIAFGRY
Kind of assay: Inhibitory activity against KasB from Mycobacterium tuberculosis H37Rv.

Assay [4] addresses T4, 3-oxoacyl-[acyl-carrier-protein] synthase 1 (Escherichia coli (strain K12), UniProt P0A953).
T4 sequence (P0A953 whole entry): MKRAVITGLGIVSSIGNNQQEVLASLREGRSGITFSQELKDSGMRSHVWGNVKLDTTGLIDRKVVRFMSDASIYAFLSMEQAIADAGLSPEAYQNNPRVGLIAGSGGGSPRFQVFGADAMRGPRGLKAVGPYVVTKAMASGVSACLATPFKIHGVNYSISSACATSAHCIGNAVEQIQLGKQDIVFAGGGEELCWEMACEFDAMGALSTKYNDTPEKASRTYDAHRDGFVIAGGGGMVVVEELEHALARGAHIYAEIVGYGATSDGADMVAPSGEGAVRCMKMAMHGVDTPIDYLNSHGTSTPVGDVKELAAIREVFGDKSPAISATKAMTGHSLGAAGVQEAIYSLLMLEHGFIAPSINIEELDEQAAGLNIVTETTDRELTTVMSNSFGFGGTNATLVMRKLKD
Kind of assay: Inhibitory activity against FabB from Escherichia coli ANSI.

pIC50: −log10 of the molar value.

A word on the pIC50: it is the IC50 on a negative log10 scale, so that one unit is a factor of ten. Regarding `CCCCCCCC1(C)SC(=O)C(C)C1=O` (stereo unspecified) [3,5-dimethyl-5-heptyl-4-hydroxy-5H-thiophen-2-one], the negative logarithm of the IC50 (pIC50) in assay [1], in assay [2], in assay [3] and in assay [4] was less than 3.00 each time.
Consider `Cc1ccc(CC2(C)SC(=O)C(C)C2=O)cc1` (stereo unspecified) [3,5-dimethyl-4-hydroxy-5-(4-methylbenzyl)-5H-thiophen-2-one], for which the pIC50 in assay [1], in assay [2], in assay [3] and in assay [4] was less than 3.00 each time.
Turning to `CC1C(=O)SC(C)(CCc2ccccc2)C1=O` (stereo unspecified) [3,5-dimethyl-4-hydroxy-5-phenethyl-5H-thiophen-2-one], the negative-log IC50 (pIC50) in assay [1], in assay [2], in assay [3] and in assay [4] was less than 3.00 throughout.
Consider `Cc1ccc(C)c(CC2(C)SC(=O)C(C)C2=O)c1` (stereo unspecified) [3,5-dimethyl-5-(2,5-dimethylbenzyl)-4-hydroxy-5H-thiophen-2-one], for which the negative logarithm of the IC50 (pIC50) in assay [1], in assay [2], in assay [3] and in assay [4] was less than 3.00 throughout.
As for `CCCCCC(C)C1(C)SC(=O)C(C)C1=O` (stereo unspecified) [3,5-dimethyl-4-hydroxy-5-(1-methylhexyl)-5H-thiophen-2-one], the negative logarithm of the IC50 (pIC50) in assay [1], in assay [2], in assay [3] and in assay [4] was less than 3.00 throughout.
For `CC1C(=O)SC(C)(Cc2ccccc2Cl)C1=O` (stereo unspecified) [5-(2-chlorobenzyl)-3,5-dimethyl-4-hydroxy-5H-thiophen-2-one], the pIC50 in assay [1], in assay [2], in assay [3] and in assay [4] was less than 3.00 throughout.
In the case of `C=CCCCCCCC1(C)SC(=O)C(C)C1=O` (stereo unspecified) [3,5-dimethyl-4-hydroxy-5-oct-7-enyl-5H-thiophen-2-one], the negative logarithm of the IC50 (pIC50) in assay [1], in assay [2], in assay [3] and in assay [4] was less than 3.00 throughout.
`Cc1ccccc1CC1(C)SC(=O)C(C)C1=O` (stereo unspecified) [3,5-dimethyl-4-hydroxy-5-(2-methylbenzyl)-5H-thiophen-2-one]: the pIC50 in assay [1], in assay [2], in assay [3] and in assay [4] was less than 3.00 each time.
As for `COc1ccccc1CC1(C)SC(=O)C(C)C1=O` (stereo unspecified) [3,5-dimethyl-4-hydroxy-5-(2-methoxybenzyl)-5H-thiophen-2-one], the pIC50 was less than 3.00 in assay [1], less than 4.00 in assay [2], less than 3.00 in assay [3] and less than 3.00 in assay [4].
Take `COc1ccc(CC2(C)SC(=O)C(C)C2=O)cc1` (stereo unspecified) [4-Hydroxy-5-(4-methoxy-benzyl)-3,5-dimethyl-5H-thiophen-2-one]: the negative logarithm of the IC50 (pIC50) in assay [1], in assay [2], in assay [3] and in assay [4] was less than 3.00 each time.
Regarding `CC(C)CCC1(C)SC(=O)C(C)C1=O` (stereo unspecified) [3,5-dimethyl-4-hydroxy-5-(3-methylbutyl)-5H-thiophen-2-one], the pIC50 in assay [1], in assay [2], in assay [3] and in assay [4] was less than 3.00 each time.
On to `CC1C(=O)SC(C)(Cc2c(Cl)cccc2Cl)C1=O` (stereo unspecified) [5-(2,6-dichlorobenzyl)-3,5-dimethyl-4-hydroxy-5H-thiophen-2-one], for which the pIC50 in assay [1], in assay [2], in assay [3] and in assay [4] was less than 3.00 each time.
Regarding `CC1C(=O)SC(C)(CC2CCC2)C1=O` (stereo unspecified) [5-cyclobutylmethyl-3,5-dimethyl-4-hydroxy-5H-thiophen-2-one], the negative-log IC50 (pIC50) in assay [1], in assay [2], in assay [3] and in assay [4] was less than 3.00 throughout.
As to `CC1C(=O)SC(C)(Cc2cccc(C(F)(F)F)c2)C1=O` (stereo unspecified) [3,5-dimethyl-4-hydroxy-5-(3-trifluoromethylbenzyl)-5H-thiophen-2-one], the negative-log IC50 (pIC50) in assay [1], in assay [2], in assay [3] and in assay [4] was less than 3.00 each time.
